Measured values taken from patent US20130116263A1, “PAK INHIBITORS FOR THE TREATMENT OF CELL PROLIFERATIVE DISORDERS” (AFRAXIS, INC., priority 2011, published 2013).

Columns and labels:
Type in all cases: biochemical
PAK1 = PAK1 (Homo sapiens, UniProt Q13153); assay: In vitro PAK inhibition assay (Z'-LYTE, SelectScreen), PAK1; conditions: read-out: PAK1 IC50
Procedure: (§1) Compounds are screened in 1% DMSO (final) in the well. For 10 point titrations, 3-fold serial dilutions are conducted. All Peptide/Kinase Mixtures are diluted to a 2× working concentration in the appropriate Kinase Buffer
The 2×PAK1/Ser/Thr 19 mixture is prepared in 50 mM HEPES pH 7.5, 0.01% BRIJ-35, 10 mM MgCl2, 1 mM EGTA.
(§2) 1. Add the following solutions to a well in a 384-well plate: • 2.5 μL of 4× Test Compound OR (100 nL 100× Test Compound plus 2.4 μL kinase buffer) • 5 μL of 2× Peptide/Kinase (PAK) Mixture • 2.5 μL of 4×ATP Solution
(§3) 3. Incubate the PAK Kinase Reaction at room temperature for 60-minutes
(§4) 4. Add 5 μL of Development Reagent Solution to each well
(§5) 6. Incubate the Development Reaction for 60-minutes
(§6) 7. Determine the fluorescence using a fluorescence plate reader
(§7) SelectScreen® Kinase Profiling Service uses XLfit from IDBS.
(§8) The representative IC50 value with a known inhibitor for each kinase was determined at the ATP bin nearest to the ATP Km app.

PAK2 (PAK65) = PAK2 (PAK65) (Homo sapiens, UniProt Q13177); assay: In vitro PAK inhibition assay (Z'-LYTE, SelectScreen), PAK2; conditions: read-out: PAK2 IC50
PAK2 (PAK65), sequence (Q13177 whole entry): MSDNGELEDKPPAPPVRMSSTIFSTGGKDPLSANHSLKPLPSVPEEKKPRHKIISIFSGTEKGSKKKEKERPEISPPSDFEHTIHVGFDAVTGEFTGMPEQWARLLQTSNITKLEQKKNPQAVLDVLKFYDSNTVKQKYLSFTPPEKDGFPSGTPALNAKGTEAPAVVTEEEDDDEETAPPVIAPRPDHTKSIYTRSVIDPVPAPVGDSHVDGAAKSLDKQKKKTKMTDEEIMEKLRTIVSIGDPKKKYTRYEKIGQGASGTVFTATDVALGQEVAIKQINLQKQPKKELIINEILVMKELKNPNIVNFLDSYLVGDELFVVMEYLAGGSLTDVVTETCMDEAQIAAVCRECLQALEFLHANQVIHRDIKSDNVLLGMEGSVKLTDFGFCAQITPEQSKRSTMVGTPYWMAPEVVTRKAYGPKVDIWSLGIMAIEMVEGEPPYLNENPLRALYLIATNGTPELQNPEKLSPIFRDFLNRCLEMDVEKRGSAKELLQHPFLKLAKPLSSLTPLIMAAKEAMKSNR
Procedure: as §1
The 2×PAK2 (PAK65)/Ser/Thr 20 mixture is prepared in 50 mM HEPES pH 7.5, 0.01% BRIJ-35, 10 mM MgCl2, 1 mM EGTA. The final 10 μL Kinase Reaction consists of 0.29-6 ng PAK2 (PAK65) and 2 μM Ser/Thr 20 in 50 mM HEPES pH 7.5, 0.01% BRIJ-35, 10 mM MgCl2, 1 mM EGTA.
as §2, §3, §4, §5, §6, §7, §8

PAK3 = PAK3 (Homo sapiens, UniProt O75914); assay: In vitro PAK inhibition assay (Z'-LYTE, SelectScreen), PAK3; conditions: read-out: PAK3 IC50
PAK3, sequence (O75914 1-544 isoform O75914-2): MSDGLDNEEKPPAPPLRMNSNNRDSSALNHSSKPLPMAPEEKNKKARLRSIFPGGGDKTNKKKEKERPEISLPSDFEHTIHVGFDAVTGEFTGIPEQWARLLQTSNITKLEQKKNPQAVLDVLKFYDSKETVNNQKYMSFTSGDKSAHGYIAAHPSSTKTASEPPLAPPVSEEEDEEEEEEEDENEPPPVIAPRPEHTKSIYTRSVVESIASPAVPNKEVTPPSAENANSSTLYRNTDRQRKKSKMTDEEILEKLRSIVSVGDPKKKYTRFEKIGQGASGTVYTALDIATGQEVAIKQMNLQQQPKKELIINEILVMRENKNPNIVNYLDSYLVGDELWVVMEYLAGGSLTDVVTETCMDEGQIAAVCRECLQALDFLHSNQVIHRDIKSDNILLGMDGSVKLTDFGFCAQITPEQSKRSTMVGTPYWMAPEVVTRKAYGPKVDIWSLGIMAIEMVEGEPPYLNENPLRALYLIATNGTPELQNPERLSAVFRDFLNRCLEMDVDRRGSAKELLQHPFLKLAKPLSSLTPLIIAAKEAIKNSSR
Procedure: as §1
The 2×PAK3/Ser/Thr 20 mixture is prepared in 50 mM HEPES pH 7.5, 0.01% BRIJ-35, 10 mM MgCl2, 1 mM EGTA.
as §2, §3, §4, §5, §6, §7, §8

PAK4 = PAK4 (Homo sapiens, UniProt O96013); assay: In vitro PAK inhibition assay (Z'-LYTE, SelectScreen), PAK4
PAK4, sequence (O96013 whole entry): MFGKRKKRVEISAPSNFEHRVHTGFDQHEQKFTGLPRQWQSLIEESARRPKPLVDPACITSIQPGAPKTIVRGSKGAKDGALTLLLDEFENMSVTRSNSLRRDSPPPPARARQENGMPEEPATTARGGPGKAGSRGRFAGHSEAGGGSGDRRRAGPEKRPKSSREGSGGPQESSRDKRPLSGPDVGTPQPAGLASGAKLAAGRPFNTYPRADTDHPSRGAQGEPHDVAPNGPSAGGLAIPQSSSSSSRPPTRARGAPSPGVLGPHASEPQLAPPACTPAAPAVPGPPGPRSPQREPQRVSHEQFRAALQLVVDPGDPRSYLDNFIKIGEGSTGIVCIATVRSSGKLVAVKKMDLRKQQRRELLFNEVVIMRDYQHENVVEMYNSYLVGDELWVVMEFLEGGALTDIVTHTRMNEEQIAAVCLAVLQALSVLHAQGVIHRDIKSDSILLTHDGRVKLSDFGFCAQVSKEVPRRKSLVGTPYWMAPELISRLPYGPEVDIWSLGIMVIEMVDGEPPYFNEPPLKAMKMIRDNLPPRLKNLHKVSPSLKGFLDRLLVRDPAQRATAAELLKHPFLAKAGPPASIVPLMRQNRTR
Procedure: as §1
The 2×PAK-4/Ser/Thr 20 mixture is prepared in 50 mM HEPES pH 7.5, 0.01% BRIJ-35, 10 mM MgCl2, 1 mM EGTA. The final 10 μL Kinase Reaction consists of 0.1-0.75 ng PAK-4 and 2 μM Ser/Thr 20 in 50 mM HEPES pH 7.5, 0.01% BRIJ-35, 10 mM MgCl2, 1 mM EGTA. After the 1 hour Kinase Reaction incubation, 5 μL of a 1:256 dilution of Development Reagent A is added.
as §2, §3, §4, §5, §6
SelectScreen® Kinase Profiling Service uses XLfit from IDBS. The dose response curve is curve fit to model number 205 (sigmoidal dose-response model).
The table below provides specifications and data around each kinase. The representative IC50 value with a known inhibitor for each kinase was determined at the ATP bin nearest to the ATP Km app.

PAK1, sequence (Q13153 whole entry): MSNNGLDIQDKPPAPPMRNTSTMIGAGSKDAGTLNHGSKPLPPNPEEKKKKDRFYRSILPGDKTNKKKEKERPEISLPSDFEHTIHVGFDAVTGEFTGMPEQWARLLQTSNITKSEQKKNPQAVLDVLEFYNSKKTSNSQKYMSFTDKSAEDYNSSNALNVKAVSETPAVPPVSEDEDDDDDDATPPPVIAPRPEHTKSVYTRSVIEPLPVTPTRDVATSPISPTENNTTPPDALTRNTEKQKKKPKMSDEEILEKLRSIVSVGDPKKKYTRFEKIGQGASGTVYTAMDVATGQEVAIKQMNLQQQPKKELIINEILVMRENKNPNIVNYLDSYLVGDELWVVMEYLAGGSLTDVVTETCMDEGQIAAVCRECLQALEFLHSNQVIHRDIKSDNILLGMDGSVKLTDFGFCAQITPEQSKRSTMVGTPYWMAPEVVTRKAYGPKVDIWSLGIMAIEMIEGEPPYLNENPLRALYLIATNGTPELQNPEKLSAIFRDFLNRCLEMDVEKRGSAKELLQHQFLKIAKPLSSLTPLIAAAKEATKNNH

| Compound | IC50 (PAK1) [µM] | IC50 (PAK2 (PAK65)) [µM] | IC50 (PAK3) [µM] | IC50 (PAK4) [µM] |
| --- | --- | --- | --- | --- |
| Cc1cncc(-c2ccc(-c3cc4cnc(N[C@@H]5CCOC5)nc4n([C@H]4CC[C@H](N)CC4)c3=O)c(Cl)c2)n1 [Example 109] | < 0.05 | < 0.05 | 0.05 to 0.5 | > 5 |
| CCn1c(=O)c(-c2ccc(-c3cncc(C)n3)cc2Cl)cc2cnc(NCCCOCCCN(C)C)nc21 [Example 130] | 0.05 to 0.5 | 0.05 to 0.5 | 0.05 to 0.5 | > 5 |
| Cc1cncc(-c2ccc(-c3cc4cnc(NCC(C)C)nc4n([C@H]4CC[C@H](N)CC4)c3=O)c(Cl)c2)n1 [Example 115] | < 0.05 | < 0.05 | < 0.05 | 0.5 to 5 |
| CCn1c(=O)c(-c2ccc(-c3nccnc3C)cc2Cl)cc2cnc(NC3CCSCC3)nc21 [Example 18] | 0.05 to 0.5 | 0.05 to 0.5 | 0.05 to 0.5 | > 5 |
| Cc1cncc(-c2ccc(-c3cc4cnc(NC(C)C)nc4n([C@H]4CC[C@H](N)CC4)c3=O)c(Cl)c2)n1 [Example 116] | < 0.05 | < 0.05 | < 0.05 | 0.5 to 5 |
| Cc1cncc(-c2ccc(-c3cc4cnc(NCC5CC5)nc4n([C@H]4CC[C@H](N)CC4)c3=O)c(Cl)c2)n1 [Example 113] | < 0.05 | < 0.05 | < 0.05 | 0.5 to 5 |
| CCn1c(=O)c(-c2ccc(-c3nccnc3C)cc2Cl)cc2cnc(NC3CC[S+]([O-])CC3)nc21 (centres unmarked) [Example 74] | 0.05 to 0.5 | 0.05 to 0.5 | 0.5 to 5 | > 5 |
| CCn1c(=O)c(-c2ccc(-c3nccnc3C)cc2Cl)cc2cnc(N[C@H]3CC[C@H](N)CC3)nc21 [Example 90, 2-(((trans-1,4)-4-aminocyclohexyl)amino)-6-(2-chloro-4-(3-methylpyrazin-2-yl)phenyl)-8-ethylpyrido[2,3-d]pyrimidin-7(8H)-one] | 0.05 to 0.5 | < 0.05 | 0.05 to 0.5 | > 5 |
| CCn1c(=O)c(-c2ccc(-c3nccnc3C)cc2Cl)cc2cnc(NC3CCN(C)C(=O)C3)nc21 (centres unmarked) [Example 35] | 0.05 to 0.5 | 0.05 to 0.5 | 0.05 to 0.5 | > 5 |
| CCn1c(=O)c(-c2ccc(-c3cncc(C)n3)cc2Cl)cc2cnc(NCCOCCN)nc21 [Example 128] | 0.05 to 0.5 | 0.05 to 0.5 | 0.05 to 0.5 | > 5 |
| CCn1c(=O)c(-c2ccc(-c3noc(C)n3)cc2Cl)cc2cnc(NCCC3CCNCC3)nc21 [Example 137] | 0.05 to 0.5 | < 0.05 | 0.05 to 0.5 | > 5 |
| CCn1c(=O)c(-c2ccc(-c3nccnc3C)cc2Cl)cc2cnc(NC3C[C@@H](C)O[C@@H](C)C3)nc21 (some centres unmarked) [Example 38] | < 0.05 | < 0.05 | 0.05 to 0.5 | > 5 |
| Cc1nccnc1-c1ccc(-c2cc3cnc(NC4CCOCC4)nc3n(C3CCCC3)c2=O)c(Cl)c1 [Example 88, 6-(2-chloro-4-(3-methylpyrazin-2-yl)phenyl)-8-cyclopentyl-2-((tetrahydro-2H-pyran-4-yl)amino)pyrido[2,3-d]pyrimidin-7(8H)-one] | 0.05 to 0.5 | 0.05 to 0.5 | 0.05 to 0.5 | > 5 |
| CCn1c(=O)c(-c2ccc(-c3nccnc3C)cc2Cl)cc2cnc(NC3CCS(=O)(=O)CC3)nc21 [Example 75] | 0.05 to 0.5 | 0.05 to 0.5 | 0.5 to 5 | > 5 |
| CCn1c(=O)c(-c2ccc(-c3nccnc3C)cc2Cl)cc2cnc(NCCC3CCNCC3)nc21 [Example 136] | < 0.05 | < 0.05 | 0.05 to 0.5 | > 5 |
| CCn1c(=O)c(-c2ccc(-c3nccnc3C)cc2Cl)cc2cnc(NC3CCN(C(C)=O)C3)nc21 (centres unmarked) [Example 19] | 0.05 to 0.5 | 0.05 to 0.5 | 0.5 to 5 | > 5 |
| Cc1cnc(-c2ccc(-c3cc4cnc(NC5CCOCC5)nc4[nH]c3=O)c(Cl)c2)s1 [Example 14] | > 5 | > 5 | 0.05 to 0.5 | > 5 |
| CCn1c(=O)c(-c2ccc(-c3nccnc3C)cc2Cl)cc2cnc(NCCC3CCN(C)CC3)nc21 [Example 91] | < 0.05 | < 0.05 | 0.05 to 0.5 | > 5 |

The next lines start with the values.

| IC50 (PAK1) [µM] | IC50 (PAK2 (PAK65)) [µM] | IC50 (PAK3) [µM] | IC50 (PAK4) [µM] | Compound |
| --- | --- | --- | --- | --- |
| < 0.05 | < 0.05 | 0.05 to 0.5 | > 5 | CCn1c(=O)c(-c2ccc(-c3nccnc3C)cc2Cl)cc2cnc(N[C@@H]3CCOC(C)(C)C3)nc21 (stereo in doubt) [Example 76] |
| 0.05 to 0.5 | 0.05 to 0.5 | 0.5 to 5 | > 5 | CCn1c(=O)c(-c2ccc(-c3cncc(C)c3)cc2Cl)cc2cnc(N[C@@H]3CCOC3)nc21 [Example 61] |
| < 0.05 | < 0.05 | 0.05 to 0.5 | > 5 | Cc1cncc(-c2ccc(-c3cc4cnc(N[C@H]5CCOC5)nc4n(CCCN(C)C)c3=O)c(Cl)c2)n1 [Example 102] |
| < 0.05 | < 0.05 | 0.05 to 0.5 | > 5 | CCn1c(=O)c(-c2cc(C)c(-c3cncc(C)n3)cc2Cl)cc2cnc(N[C@@H]3CCOC3)nc21 [Example 71] |
| 0.05 to 0.5 | 0.05 to 0.5 | 0.5 to 5 | > 5 | CCN(CC)CCn1c(=O)c(-c2ccc(-c3cncc(C)n3)cc2Cl)cc2cnc(N[C@@H]3CCOC3)nc21 [Example 96] |
| 0.05 to 0.5 | 0.05 to 0.5 | 0.5 to 5 | > 5 | CCn1c(=O)c(-c2ccc(-c3cnccn3)cc2Cl)cc2cnc(N[C@@H]3CCOC3)nc21 [Example 60] |
| < 0.05 | 0.05 to 0.5 | 0.05 to 0.5 | > 5 | CCn1c(=O)c(-c2ccc(-c3cccnc3F)cc2Cl)cc2cnc(N[C@@H]3CCOC3)nc21 [Example 40] |
| 0.05 to 0.5 | 0.5 to 5 | 0.5 to 5 | > 5 | CCn1c(=O)c(-c2ccc(-c3cnccc3C)cc2Cl)cc2cnc(N[C@@H]3CCOC3)nc21 [Example 49] |
| 0.05 to 0.5 | 0.05 to 0.5 | 0.05 to 0.5 | > 5 | CCn1c(=O)c(-c2ccc(-c3noc(C)n3)cc2Cl)cc2cnc(N[C@@H]3CCOC3)nc21 [Example 54] |
| < 0.05 | 0.05 to 0.5 | 0.05 to 0.5 | > 5 | CCn1c(=O)c(-c2ccc(-c3cccnc3F)cc2Cl)cc2cnc(N[C@H]3CCOC3)nc21 [Example 41] |
| 0.5 to 5 | 0.5 to 5 | 0.5 to 5 | > 5 | CCn1c(=O)c(-c2ccc(-c3cccnc3C)cc2Cl)cc2cnc(N[C@@H]3CCOC3)nc21 [Example 59] |
| 0.05 to 0.5 | < 0.05 | 0.05 to 0.5 | > 5 | Cc1nccnc1-c1ccc(-c2cc3cnc(N[C@@H]4CCOC4)nc3n(Cc3cccnc3)c2=O)c(Cl)c1 [Example 122, (R)-6-(2-chloro-4-(3-methylpyrazin-2-yl)phenyl)-8-(pyridin-3-ylmethyl)-2-((tetrahydrofuran-3-yl)amino)pyrido[2,3-d]pyrimidin-7(8H)-one] |
| < 0.05 | < 0.05 | 0.05 to 0.5 | > 5 | COCCCn1c(=O)c(-c2ccc(-c3cncc(C)n3)cc2Cl)cc2cnc(N[C@H]3CCOC3)nc21 [Example 65] |
| 0.05 to 0.5 | < 0.05 | 0.05 to 0.5 | > 5 | CCn1c(=O)c(-c2ccc(-c3cncc(C)n3)cc2Cl)cc2cnc(NC3CCOC3)nc21 (centres unmarked) [Example 29] |
| 0.05 to 0.5 | 0.05 to 0.5 | 0.05 to 0.5 | > 5 | CCn1c(=O)c(-c2ccc(-c3noc(C)n3)cc2Cl)cc2cnc(NC3CCOCC3)nc21 [Example 4] |
| < 0.05 | < 0.05 | 0.05 to 0.5 | > 5 | CCn1c(=O)c(-c2ccc(-c3cncc(C)n3)cc2Cl)cc2cnc(N[C@H]3CC[C@H](N)CC3)nc21 [Example 85] |
| < 0.05 | < 0.05 | 0.05 to 0.5 | > 5 | CCn1c(=O)c(-c2ccc(-c3cncc(C)n3)cc2Cl)cc2cnc(NC3CCC(CCN)CC3)nc21 (centres unmarked) [Example 134] |
